# According to publication PMC12197275, “Preclinical Pharmacokinetic Evaluation of Mithramycin and Mithramycin SA Tryptophan-Conjugated Analog” (Pharmaceutics, 2025):
# Where two headings read alike, the source gives them in different places.
# Tests used:
# [1] = cited from earlier work
# [2] = Cassette microdose plasma PK in male athymic nude mice, 69 µg/kg (Study 5)
# Procedure: (§1) All samples were processed and analyzed by LC-MS/MS using a bioanalytical method validated according to the FDA’s Bioanalytical Guidance, essentially as described by Eckenrode et al. with some modifications [15]. […] Plasma samples above the calibration curve range were diluted, along with quality control (QC) samples, and values were accepted when the interpolated concentrations were within 15% of the nominal values. The expected % recovery for both compounds was >90% [15, 16]. Analyte separation and detection were performed on a Sciex Exion HPLC system equipped with a C18 analytical column (Phenomenex Synergi 4 µm Fusion-RP 80A; 50 mm × 2 mm with a guard column) and coupled to a hybrid triple-quadrupole/linear ion trap mass spectrometer (Sciex QTrap 6500+ or 7500+, Framingham, MA, USA). A 0.6 mL/min gradient of 0.005% formic acid in water and 0.005% formic acid in acetonitrile was used to elute the analytes within a 5 min time window. […] The internal standard was the MTM oxime–tryptophan [5]. The instruments were controlled and the data were integrated and processed using Sciex OS software version 3.3.1.43.
# (§2) Only concentrations above the limit of quantification were used for NCA. The linear-up log-down trapezoidal integration method was used to estimate the area under the curve from time zero to the last measurable concentration–time point (AUClast). The terminal elimination rate constant (ke) was estimated by log-linear regression using the last three data points of the concentration–time profiles.
# [3] = Plasma PK in male Sprague Dawley rats, IV bolus 0.5 mg/kg (Study 2); conditions: male rat, 0.5 mg/kg IV bolus
# Procedure: Rat PK studies were conducted using male Sprague Dawley rats (Study 2; Table 1). […] Blood samples were collected at three different time points by saphenous bleeding. The collection time points were at 5 min and 20 min and at 1, 3, 6, and 9 h. The blood samples were processed and stored as described above.
# as §1, §2
# [4] = Stability of dosing solutions; conditions: […]; 5% Solutol HS-15/95% PBS pH 8)
# [5] = parameters: method as in doi:10.1158/1535-7163.TARG-23-B150; conditions: across different multi-day dosing schedules; cited from earlier work
# [6] = system: plasma from Cynomolgus monkeys; test: Plasma protein binding by rapid equilibrium dialysis, monkey plasma; conditions: Cynomolgus macaque plasma
# Procedure: (§3) Protein binding was assessed in plasma derived from athymic nude (nu/nu) mice, Sprague Dawley rats, Cynomolgus monkeys, and humans. Plasma from athymic nude mice and Sprague Dawley rats was collected from animals housed locally. […] Plasma was collected by centrifuging the whole blood immediately upon collection, stored at 4 °C, and used within one week of storage for protein binding studies. The plasma was spiked with the compound to prepare 1, 3, and 10 µM final concentrations (0.1% DMSO (v/v)). Spiked plasma (100 µL) and PBS (350 µL) were placed in their respective chambers in the Pierce™ RED Device (12K MWCO; Linden Bioscience, Research Triangle Park, NC, USA) and incubated in a Talboys microplate shaker at 37 °C and 250 rpm for 4 h to achieve equilibrium. Post-dialysis samples were collected from the plasma and buffer chambers, matrix-matched with PBS and plasma, respectively, and analyzed by LC-MS/MS as detailed below. The experiments were performed in triplicate, and the unbound percentage was calculated based on the following equation [13]: fu=PBS chamber area ratio/Plasma chamber area ratio;Area ratio=analyte area/ISTD area
# (§4) All samples were processed and analyzed by LC-MS/MS using a bioanalytical method validated according to the FDA’s Bioanalytical Guidance, essentially as described by Eckenrode et al. with some modifications [15]. […] Plasma samples above the calibration curve range were diluted, along with quality control (QC) samples, and values were accepted when the interpolated concentrations were within 15% of the nominal values. […] Analyte separation and detection were performed on a Sciex Exion HPLC system equipped with a C18 analytical column (Phenomenex Synergi 4 µm Fusion-RP 80A; 50 mm × 2 mm with a guard column) and coupled to a hybrid triple-quadrupole/linear ion trap mass spectrometer (Sciex QTrap 6500+ or 7500+, Framingham, MA, USA). A 0.6 mL/min gradient of 0.005% formic acid in water and 0.005% formic acid in acetonitrile was used to elute the analytes within a 5 min time window. […] The internal standard was the MTM oxime–tryptophan [5]. […]
# [7] = system: human plasma; test: Plasma protein binding by rapid equilibrium dialysis, human plasma
# Procedure: as §3
# (§5) All samples were processed and analyzed by LC-MS/MS using a bioanalytical method validated according to the FDA’s Bioanalytical Guidance, essentially as described by Eckenrode et al. with some modifications [15]. […] Plasma samples above the calibration curve range were diluted, along with quality control (QC) samples, and values were accepted when the interpolated concentrations were within 15% of the nominal values. […] Analyte separation and detection were performed on a Sciex Exion HPLC system equipped with a C18 analytical column (Phenomenex Synergi 4 µm Fusion-RP 80A; 50 mm × 2 mm with a guard column) and coupled to a hybrid triple-quadrupole/linear ion trap mass spectrometer (Sciex QTrap 6500+ or 7500+, Framingham, MA, USA). A 0.6 mL/min gradient of 0.005% formic acid in water and 0.005% formic acid in acetonitrile was used to elute the analytes within a 5 min time window. […] The internal standard was the MTM oxime–tryptophan [5]. The instruments were controlled and the data were integrated and processed using Sciex OS software version 3.3.1.43.
# [8] = system: plasma from Sprague Dawley rats; test: Plasma protein binding by rapid equilibrium dialysis, rat plasma
# Procedure: as §3, §4
# [9] = system: plasma from athymic nude (nu/nu) mice; test: Plasma protein binding by rapid equilibrium dialysis, mouse plasma; conditions: for Fraction Unbound (%): athymic nude mouse plasma
# Procedure: as §3, §5
# [10] = male monkey n=1, high microdose cassette: MTM 13.18 µg/kg, MTMSA-Trp 4.19 µg/kg, IV infusion
# Procedure: Two separate cassette dosing PK studies were conducted using male cynomolgus monkeys. […] The blood samples were processed and stored as described above.
# as §1
# [11] = Plasma PK in male athymic nude mice, IV bolus 2 mg/kg (Study 1); conditions: male mouse, 2 mg/kg IV bolus
# Procedure: Four separate PK studies were conducted using nu/nu mice. For studies using destructive sampling, the animals were anesthetized under isoflurane gas and samples were collected through intracardiac puncture in heparinized syringes. […] Blood samples were collected (n = 3 mice/time point) by cardiac puncture at 5 and 30 min and at 1.5, 3, and 6 h. […] Blood samples (n = 3 mice/time point) were collected by cardiac puncture at 5 min, 30 min, 2 h, and 5 h. […] Three groups (n = 9/group) of nu/nu mice were dosed at 0.3 mg/kg, 1 mg/kg, and 3 mg/kg. The mice at each dose level were randomized into three groups of three mice. The sampling time points for the three doses were as follows: 10 min, 20 min, 30 min, 45 min, 1 h, 1.5 h, 2 h, 2.5 h, and 3 h for the 0.3 mg/kg group; 5 min, 15 min, 30 min, 1 h, 2 h, 3 h, 4 h, 6 h, and 8 h for the 1 mg/kg group; and 5 min, 15 min, 30 min, 1 h, 2 h, 4 h, 6 h, 9 h, and 12 h for the 3 mg/kg group. […] Blood samples (n = 2 mice/time point) were collected by cardiac puncture at 10 min, 30 min, 1 h, 3 h, and 6 h. After collection, blood samples were immediately centrifuged at 4000 g for 2 min, and plasma samples were immediately collected and placed on dry ice, followed by storage at −80 °C until analysis.
# Plasma samples above the calibration curve range were diluted, along with quality control (QC) samples, and values were accepted when the interpolated concentrations were within 15% of the nominal values.
# [12] = Cassette microdose plasma PK in male Sprague Dawley rats, 28 µg/kg (Study 6)
# Procedure: as §1, §2
# [13] = male mouse, 69 µg/kg each, cassette IV bolus
# [14] = female athymic nude mice, 0.3 mg/kg IV bolus
# [15] = female athymic nude mice, 1 mg/kg IV bolus
# [16] = female athymic nude mice, 3 mg/kg IV bolus
# [17] = female athymic nude mice, 5 mg/kg IV bolus
# [18] = female athymic nude mice, 10 mg/kg IV bolus
# [19] = male rat, 28 µg/kg each, cassette IV bolus
molecule,measurement,setting,value
CO[C@@H]([C@@H]1Cc2cc3cc(O[C@H]4CC(O[C@H]5CC(O)[C@H](O)C(C)O5)[C@H](O)C(C)O4)c(C)c(O)c3c(O)c2C(=O)[C@H]1O[C@H]1CC(O[C@H]2CC(O[C@H]3CC(O)[C@H](O)C(C)O3)[C@@H](O)C(C)O2)[C@H](O)C(C)O1)[C@@H](O)C(C)=O (some centres unmarked) [EC-8042],systemic clearance,[1]; same as MTM,high systemic clearance
CO[C@H](C(=O)C(C)=O)[C@@H]1Cc2cc3cc(OC4C[C@@H](OC5C[C@@H](O)[C@H](O)C(C)O5)[C@H](O)C(C)O4)c(C)c(O)c3c(O)c2C(=O)[C@H]1OC1C[C@@H](OC2C[C@@H](OC3C[C@](C)(O)[C@H](O)C(C)O3)[C@@H](O)C(C)O2)[C@H](O)C(C)O1 (some centres unmarked) [MTM-SDK],systemic clearance,[1]; in vivo,high systemic clearance
CO[C@H](C(O)C(C)=O)[C@@H]1Cc2cc3cc(OC4C[C@@H](OC5C[C@@H](O)[C@H](O)C(C)O5)[C@H](O)C(C)O4)c(C)c(O)c3c(O)c2C(=O)[C@H]1OC1C[C@@H](OC2C[C@@H](OC3C[C@](C)(O)[C@H](O)C(C)O3)[C@@H](O)C(C)O2)[C@H](O)C(C)O1 (some centres unmarked) [MTM-SK],systemic clearance,[1]; in vivo,high systemic clearance
COC(=O)[C@H](Cc1c[nH]c2ccccc12)NC(=O)[C@H](Cc1ccccc1)NC(=O)CO/N=C(\[C@@H](O)[C@@H](C)O)[C@@H](OC)[C@@H]1Cc2cc3cc(O[C@H]4C[C@@H](O[C@H]5C[C@@H](O)[C@H](O)[C@@H](C)O5)[C@H](O)[C@@H](C)O4)c(C)c(O)c3c(O)c2C(=O)[C@H]1O[C@H]1C[C@@H](O[C@H]2C[C@@H](O[C@H]3C[C@](C)(O)[C@H](O)[C@@H](C)O3)[C@@H](O)[C@@H](C)O2)[C@H](O)[C@@H](C)O1 [MTMox32E],systemic clearance,[1]; in vivo,low systemic clearance
mithramycin SA-Trp [MTMSA-Trp],AUC0–inf,[2]; [13],569 ng·h/mL
same,CL,[2]; [13],2.02 mL/min/kg
same,Extrapolated AUC0–inf,[2]; [13],3.2%
same,Terminal t1/2,[2]; [13],1.8 h
same,Vd,[2]; [13],0.318 L/kg
same,change of systemic clearance between microgram- and milligram-level doses,"[2]; mice, 69 µg/kg vs 2 mg/kg",approximately 0.4 fold
same,AUC0–inf,[3],3486 ng·h/mL
same,CL,[3],2.38 mL/min/kg
same,Extrapolated AUC0–inf,[3],1.43%
same,Terminal t1/2,[3],1.56 h
same,Vd,[3],0.324 L/kg
same,stability of dosing solution following formulation,[4],at least 11 days
same,maximum tolerated doses,[5],1 to 3 mg/kg
same,Fraction Unbound (%),[6]; 1 µM,1.03 ± 0.27%
same,Fraction Unbound (%),[6]; 3 µM,1.02 ± 0.09%
same,Fraction Unbound (%),[6]; 10 µM,1.14 ± 0.15%
same,Fraction Unbound (%),[7]; 1 µM,<1%
same,Fraction Unbound (%),[7]; 3 µM,<1%
same,Fraction Unbound (%),[7]; 10 µM,<1%
same,unbound fraction,[7]; across tested concentrations,< 1%
same,Fraction Unbound (%),[8]; 1 µM,2.41 ± 1.29%
same,Fraction Unbound (%),[8]; 3 µM,3.85 ± 0.08%
same,Fraction Unbound (%),[8]; 10 µM,3.88 ± 0.54%
same,Fraction Unbound (%),[9]; 1 µM,<1%
same,Fraction Unbound (%),[9]; 3 µM,<1%
same,Fraction Unbound (%),[9]; 10 µM,<1%
same,unbound fraction,"[9]; nu/nu mouse plasma, across tested concentrations (1, 3, 10 µM)",< 1%
same,AUC0–inf,[10],181 ng·h/mL
same,CL,[10],0.383 mL/min/kg
same,Extrapolated AUC0–inf,[10],4.99%
same,Terminal t1/2,[10],0.78 h
same,Vd,[10],0.026 L/kg
same,AUC0–inf,[11],"38,564 ng/mL·h"
same,CL,[11],0.867 mL/min/kg
same,Extrapolated AUC0–inf,[11],8.07%
same,Terminal t1/2,[11],1.85 h
same,Vd,[11],0.138 L/kg
same,"estimated systemic clearance, average","average over 1, 3, 5, and 10 mg/kg, female athymic nude mice",approximately 41 mL/h/kg
same,AUC0–inf,[14],4373 ng·h/mL
same,CL,[14],1.15 mL/min/kg
same,Extrapolated AUC0–inf,[14],0.4%
same,Vd,[14],0.045 L/kg
same,t1/2,[14],0.5 h
same,AUC0–inf,[15],"24,419 ng/mL·h"
same,CL,[15],0.683 mL/min/kg
same,Extrapolated AUC0–inf,[15],0.2%
same,Vd,[15],0.075 L/kg
same,t1/2,[15],1.3 h
same,AUC0–inf,[16],"91,778 ng/mL·h"
same,CL,[16],0.55 mL/min/kg
same,Extrapolated AUC0–inf,[16],0.2%
same,Vd,[16],0.123 L/kg
same,t1/2,[16],2.6 h
same,CL,[17],0.6 mL/min/kg
same,Extrapolated AUC0–inf,[17],6.5%
same,Vd,[17],0.08 L/kg
same,t1/2,[17],1.5 h
same,AUC0–inf,[18],"216,281 ng/mL·h"
same,CL,[18],0.767 mL/min/kg
same,Extrapolated AUC0–inf,[18],5.6%
same,Vd,[18],0.081 L/kg
same,t1/2,[18],1.2 h
same,linear kinetics range,"female athymic nude mice, IV bolus",1 to 10 mg/kg
same,dose proportionality,"mice, 1, 3, and 10 mg/kg doses",linear pharmacokinetics
same,AUC0–inf,[12]; [19],223 ng·h/mL
same,CL,[12]; [19],2.1 mL/min/kg
same,Extrapolated AUC0–inf,[12]; [19],8.4%
same,Terminal t1/2,[12]; [19],2.4 h
same,Vd,[12]; [19],0.428 L/kg
same,change of systemic clearance between microgram- and milligram-level doses,"[12]; rats, 28 µg/kg vs 0.5 mg/kg",remained similar
